The target of test [1] is Ribosomal protein S6 kinase alpha-1 (Homo sapiens, UniProt Q15418). The test can be described thus: Selectivity interaction (KinomeScan (DiscoverX)) EUB0000607a RPS6KA1. To be noted: at 10 µM.
Test [2] addresses Serine/threonine-protein kinase mTOR (Homo sapiens, UniProt P42345). To be noted: at 10 µM.
In test [3] the target is Mitogen-activated protein kinase kinase kinase kinase 5 (Homo sapiens) (UniProt Q9Y4K4). Put plainly: Selectivity interaction (KinomeScan (DiscoverX)) EUB0000655a MAP4K5. To be noted: at 10 µM.
Test [4] has as its target T1, Phosphatidylinositol 5-phosphate 4-kinase type-2 gamma (Homo sapiens) (UniProt Q8TBX8).
T1 sequence (whole entry): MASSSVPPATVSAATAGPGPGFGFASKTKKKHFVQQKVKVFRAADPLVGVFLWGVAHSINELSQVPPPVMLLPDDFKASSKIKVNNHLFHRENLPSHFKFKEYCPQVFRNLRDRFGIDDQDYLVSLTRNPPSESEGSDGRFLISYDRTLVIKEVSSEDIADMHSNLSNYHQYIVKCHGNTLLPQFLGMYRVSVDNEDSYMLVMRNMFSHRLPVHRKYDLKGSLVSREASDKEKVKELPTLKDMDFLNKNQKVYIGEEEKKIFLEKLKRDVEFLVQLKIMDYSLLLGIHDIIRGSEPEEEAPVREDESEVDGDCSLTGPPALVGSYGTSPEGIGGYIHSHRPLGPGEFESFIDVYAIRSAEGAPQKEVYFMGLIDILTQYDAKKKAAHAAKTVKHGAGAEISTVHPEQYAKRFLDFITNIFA
The test can be described thus: Selectivity interaction (KinomeScan (DiscoverX)) EUB0000655a PIP4K2C. To be noted: at 10 µM.

Test [5] concerns the target T2, Myotonin-protein kinase (Homo sapiens) (UniProt Q09013).
T2 sequence (whole entry): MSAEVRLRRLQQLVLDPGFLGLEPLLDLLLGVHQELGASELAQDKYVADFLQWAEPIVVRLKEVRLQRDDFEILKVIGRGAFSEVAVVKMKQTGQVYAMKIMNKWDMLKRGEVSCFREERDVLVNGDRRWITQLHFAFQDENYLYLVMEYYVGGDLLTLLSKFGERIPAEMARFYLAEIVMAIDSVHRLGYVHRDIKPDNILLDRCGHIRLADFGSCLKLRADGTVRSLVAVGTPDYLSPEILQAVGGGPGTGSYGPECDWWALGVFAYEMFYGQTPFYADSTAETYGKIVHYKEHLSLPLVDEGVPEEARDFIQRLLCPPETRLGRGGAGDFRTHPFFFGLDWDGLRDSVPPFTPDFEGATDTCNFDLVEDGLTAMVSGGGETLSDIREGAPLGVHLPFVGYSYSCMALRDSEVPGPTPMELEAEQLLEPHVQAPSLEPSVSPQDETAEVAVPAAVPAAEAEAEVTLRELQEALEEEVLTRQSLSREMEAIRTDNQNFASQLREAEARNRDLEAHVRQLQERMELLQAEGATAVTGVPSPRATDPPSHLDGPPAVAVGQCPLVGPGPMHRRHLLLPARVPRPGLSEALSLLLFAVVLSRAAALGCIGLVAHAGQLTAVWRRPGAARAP
Put plainly: Selectivity interaction (KinomeScan (DiscoverX)) EUB0001079a DMPK. To be noted: at 1 µM.

Test [6] has as its system Epidermal growth factor receptor (Homo sapiens), P00533 [G719C]. Put plainly: (§1) Selectivity interaction (KinomeScan (DiscoverX)) EUB0001079a EGFR. Particulars: at 1 µM.
Test [7] concerns Epidermal growth factor receptor (Homo sapiens), P00533 [G719S]. The description is as §1. Particulars: at 1 µM.
Test [8] concerns Epidermal growth factor receptor (Homo sapiens), P00533 [L858R,T790M]. The test is described as §1. To be noted: at 1 µM.
Test [9] relates to Epidermal growth factor receptor (Homo sapiens), P00533 [L858R]. The test is described as §1. Particulars: at 1 µM.
For test [10], the system named is Epidermal growth factor receptor (Homo sapiens), P00533 [L861Q]. Described as §1. To be noted: at 1 µM.
Test [11] relates to Epidermal growth factor receptor (Homo sapiens), P00533 [T790M]. The test is described as §1. To be noted: at 1 µM.
Test [12] has as its system Epidermal growth factor receptor (Homo sapiens), P00533 [UNDEFINED MUTATION]. The description is as §1. Particulars: at 1 µM.
Test [13] has as its target Epidermal growth factor receptor (Homo sapiens, UniProt P00533). The description is as §1. To be noted: at 1 µM.
Test [14] in a line: Selectivity interaction (Kinase panel (Enzyme activity assay)) EUB0000612a IGF1.
Test [15] has as its target T3, Mitogen-activated protein kinase kinase kinase 6 (Homo sapiens) (UniProt O95382).
T3 sequence (whole entry): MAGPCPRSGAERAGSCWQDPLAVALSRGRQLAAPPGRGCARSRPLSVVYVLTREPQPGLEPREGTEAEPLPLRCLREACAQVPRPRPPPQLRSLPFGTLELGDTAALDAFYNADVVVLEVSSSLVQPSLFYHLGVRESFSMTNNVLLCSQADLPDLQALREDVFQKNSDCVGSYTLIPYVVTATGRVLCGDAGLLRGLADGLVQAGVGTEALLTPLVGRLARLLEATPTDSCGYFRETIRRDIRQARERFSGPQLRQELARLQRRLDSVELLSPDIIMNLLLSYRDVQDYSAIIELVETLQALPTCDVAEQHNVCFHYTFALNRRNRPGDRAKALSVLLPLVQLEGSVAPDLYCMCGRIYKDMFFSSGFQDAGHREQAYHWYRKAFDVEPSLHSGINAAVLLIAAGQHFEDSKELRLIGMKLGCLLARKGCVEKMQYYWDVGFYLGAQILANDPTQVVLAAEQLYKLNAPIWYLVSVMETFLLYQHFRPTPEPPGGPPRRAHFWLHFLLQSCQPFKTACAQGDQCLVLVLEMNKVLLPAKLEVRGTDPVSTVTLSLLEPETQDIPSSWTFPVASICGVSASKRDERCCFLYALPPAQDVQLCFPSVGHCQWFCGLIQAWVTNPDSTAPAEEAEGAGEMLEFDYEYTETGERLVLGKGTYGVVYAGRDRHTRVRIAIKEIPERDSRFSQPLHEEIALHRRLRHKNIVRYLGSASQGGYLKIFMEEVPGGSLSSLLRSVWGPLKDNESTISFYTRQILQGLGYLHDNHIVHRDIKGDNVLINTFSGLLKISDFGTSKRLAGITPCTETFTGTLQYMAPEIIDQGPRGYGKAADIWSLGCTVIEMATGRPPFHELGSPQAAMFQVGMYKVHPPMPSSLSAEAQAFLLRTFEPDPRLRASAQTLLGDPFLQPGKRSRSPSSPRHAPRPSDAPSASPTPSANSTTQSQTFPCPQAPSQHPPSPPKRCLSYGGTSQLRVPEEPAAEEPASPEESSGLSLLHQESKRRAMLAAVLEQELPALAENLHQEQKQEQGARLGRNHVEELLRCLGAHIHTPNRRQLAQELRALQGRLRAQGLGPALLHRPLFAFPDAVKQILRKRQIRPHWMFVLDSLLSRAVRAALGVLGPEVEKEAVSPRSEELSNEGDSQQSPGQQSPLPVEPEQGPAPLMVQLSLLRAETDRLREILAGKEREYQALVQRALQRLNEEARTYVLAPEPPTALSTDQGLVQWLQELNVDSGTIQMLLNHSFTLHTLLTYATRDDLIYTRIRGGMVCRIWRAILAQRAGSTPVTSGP
Put plainly: Selectivity interaction (KinomeScan (DiscoverX)) EUB0000045b MAP3K6.

Chain of Epidermal growth factor receptor (Homo sapiens), P00533 [G719C] (P00533 whole entry G719C): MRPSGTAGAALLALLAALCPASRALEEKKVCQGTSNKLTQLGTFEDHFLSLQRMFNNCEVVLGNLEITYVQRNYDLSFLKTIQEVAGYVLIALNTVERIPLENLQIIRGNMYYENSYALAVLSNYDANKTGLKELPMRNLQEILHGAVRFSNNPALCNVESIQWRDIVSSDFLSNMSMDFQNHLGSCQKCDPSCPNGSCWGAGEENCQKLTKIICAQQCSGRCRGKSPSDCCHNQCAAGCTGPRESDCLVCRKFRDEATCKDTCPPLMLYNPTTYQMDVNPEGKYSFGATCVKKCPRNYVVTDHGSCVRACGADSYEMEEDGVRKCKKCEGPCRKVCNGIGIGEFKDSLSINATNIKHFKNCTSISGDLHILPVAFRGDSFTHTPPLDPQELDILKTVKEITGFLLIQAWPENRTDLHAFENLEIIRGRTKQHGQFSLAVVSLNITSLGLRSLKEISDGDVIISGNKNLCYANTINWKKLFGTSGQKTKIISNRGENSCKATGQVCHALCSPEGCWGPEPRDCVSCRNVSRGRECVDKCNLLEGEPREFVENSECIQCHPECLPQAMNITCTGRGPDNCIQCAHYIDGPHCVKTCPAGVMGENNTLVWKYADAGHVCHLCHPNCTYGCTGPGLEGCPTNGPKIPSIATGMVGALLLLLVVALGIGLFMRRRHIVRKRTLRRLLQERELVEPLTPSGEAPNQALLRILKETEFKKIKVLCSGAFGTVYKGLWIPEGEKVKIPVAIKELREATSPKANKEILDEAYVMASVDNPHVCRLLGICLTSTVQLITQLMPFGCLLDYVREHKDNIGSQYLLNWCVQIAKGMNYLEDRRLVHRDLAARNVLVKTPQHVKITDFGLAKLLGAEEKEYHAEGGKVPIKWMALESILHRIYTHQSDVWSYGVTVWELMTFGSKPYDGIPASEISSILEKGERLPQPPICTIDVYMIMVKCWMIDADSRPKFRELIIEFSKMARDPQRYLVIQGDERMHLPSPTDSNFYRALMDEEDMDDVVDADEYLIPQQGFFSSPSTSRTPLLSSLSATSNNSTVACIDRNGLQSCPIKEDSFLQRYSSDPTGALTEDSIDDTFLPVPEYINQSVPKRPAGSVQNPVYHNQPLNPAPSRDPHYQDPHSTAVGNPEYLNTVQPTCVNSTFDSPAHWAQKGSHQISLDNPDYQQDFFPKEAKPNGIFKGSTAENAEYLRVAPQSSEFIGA
Chain of Mitogen-activated protein kinase kinase kinase kinase 5 (Homo sapiens) (Q9Y4K4 whole entry, looked up): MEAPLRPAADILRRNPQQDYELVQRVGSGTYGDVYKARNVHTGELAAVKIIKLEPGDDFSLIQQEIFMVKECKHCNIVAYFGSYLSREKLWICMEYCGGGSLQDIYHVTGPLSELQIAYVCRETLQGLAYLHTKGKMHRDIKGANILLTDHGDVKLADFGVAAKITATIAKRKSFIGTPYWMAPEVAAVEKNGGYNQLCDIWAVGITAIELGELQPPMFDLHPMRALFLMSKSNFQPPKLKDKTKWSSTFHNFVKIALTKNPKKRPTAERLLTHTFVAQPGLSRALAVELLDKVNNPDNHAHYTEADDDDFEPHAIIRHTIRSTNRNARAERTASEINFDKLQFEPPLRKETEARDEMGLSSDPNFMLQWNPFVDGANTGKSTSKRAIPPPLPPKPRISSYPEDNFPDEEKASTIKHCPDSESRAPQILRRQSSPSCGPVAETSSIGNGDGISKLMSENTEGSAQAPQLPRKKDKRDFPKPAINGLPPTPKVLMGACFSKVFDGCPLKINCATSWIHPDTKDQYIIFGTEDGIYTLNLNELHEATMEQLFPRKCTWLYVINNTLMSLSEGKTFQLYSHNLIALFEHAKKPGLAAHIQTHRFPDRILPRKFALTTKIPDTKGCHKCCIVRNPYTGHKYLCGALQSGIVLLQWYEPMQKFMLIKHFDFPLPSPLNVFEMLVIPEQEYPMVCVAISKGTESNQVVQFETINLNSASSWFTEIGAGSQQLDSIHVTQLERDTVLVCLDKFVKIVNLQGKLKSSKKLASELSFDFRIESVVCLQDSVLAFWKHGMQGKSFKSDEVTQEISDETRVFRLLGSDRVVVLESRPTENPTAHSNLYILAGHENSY
Chain of Ribosomal protein S6 kinase alpha-1 (Q15418 whole entry): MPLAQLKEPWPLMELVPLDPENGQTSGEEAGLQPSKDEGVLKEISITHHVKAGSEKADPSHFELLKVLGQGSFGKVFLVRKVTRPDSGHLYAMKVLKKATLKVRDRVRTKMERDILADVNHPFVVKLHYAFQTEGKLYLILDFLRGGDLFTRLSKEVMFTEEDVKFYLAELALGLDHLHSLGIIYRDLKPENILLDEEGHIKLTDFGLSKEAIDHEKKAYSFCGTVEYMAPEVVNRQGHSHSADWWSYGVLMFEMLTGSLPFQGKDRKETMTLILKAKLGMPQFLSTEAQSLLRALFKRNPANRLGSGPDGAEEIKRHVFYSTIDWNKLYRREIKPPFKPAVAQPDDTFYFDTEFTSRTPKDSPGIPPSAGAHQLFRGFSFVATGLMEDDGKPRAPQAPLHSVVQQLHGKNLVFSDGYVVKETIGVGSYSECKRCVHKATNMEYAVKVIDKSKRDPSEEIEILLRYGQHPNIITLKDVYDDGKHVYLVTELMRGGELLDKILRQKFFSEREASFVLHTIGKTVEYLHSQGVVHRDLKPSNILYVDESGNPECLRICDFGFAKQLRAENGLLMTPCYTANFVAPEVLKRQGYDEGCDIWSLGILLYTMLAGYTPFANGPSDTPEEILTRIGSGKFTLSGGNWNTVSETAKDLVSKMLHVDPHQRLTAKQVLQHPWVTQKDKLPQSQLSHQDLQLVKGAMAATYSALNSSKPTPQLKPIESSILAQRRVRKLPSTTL
Chain of Epidermal growth factor receptor (P00533 whole entry): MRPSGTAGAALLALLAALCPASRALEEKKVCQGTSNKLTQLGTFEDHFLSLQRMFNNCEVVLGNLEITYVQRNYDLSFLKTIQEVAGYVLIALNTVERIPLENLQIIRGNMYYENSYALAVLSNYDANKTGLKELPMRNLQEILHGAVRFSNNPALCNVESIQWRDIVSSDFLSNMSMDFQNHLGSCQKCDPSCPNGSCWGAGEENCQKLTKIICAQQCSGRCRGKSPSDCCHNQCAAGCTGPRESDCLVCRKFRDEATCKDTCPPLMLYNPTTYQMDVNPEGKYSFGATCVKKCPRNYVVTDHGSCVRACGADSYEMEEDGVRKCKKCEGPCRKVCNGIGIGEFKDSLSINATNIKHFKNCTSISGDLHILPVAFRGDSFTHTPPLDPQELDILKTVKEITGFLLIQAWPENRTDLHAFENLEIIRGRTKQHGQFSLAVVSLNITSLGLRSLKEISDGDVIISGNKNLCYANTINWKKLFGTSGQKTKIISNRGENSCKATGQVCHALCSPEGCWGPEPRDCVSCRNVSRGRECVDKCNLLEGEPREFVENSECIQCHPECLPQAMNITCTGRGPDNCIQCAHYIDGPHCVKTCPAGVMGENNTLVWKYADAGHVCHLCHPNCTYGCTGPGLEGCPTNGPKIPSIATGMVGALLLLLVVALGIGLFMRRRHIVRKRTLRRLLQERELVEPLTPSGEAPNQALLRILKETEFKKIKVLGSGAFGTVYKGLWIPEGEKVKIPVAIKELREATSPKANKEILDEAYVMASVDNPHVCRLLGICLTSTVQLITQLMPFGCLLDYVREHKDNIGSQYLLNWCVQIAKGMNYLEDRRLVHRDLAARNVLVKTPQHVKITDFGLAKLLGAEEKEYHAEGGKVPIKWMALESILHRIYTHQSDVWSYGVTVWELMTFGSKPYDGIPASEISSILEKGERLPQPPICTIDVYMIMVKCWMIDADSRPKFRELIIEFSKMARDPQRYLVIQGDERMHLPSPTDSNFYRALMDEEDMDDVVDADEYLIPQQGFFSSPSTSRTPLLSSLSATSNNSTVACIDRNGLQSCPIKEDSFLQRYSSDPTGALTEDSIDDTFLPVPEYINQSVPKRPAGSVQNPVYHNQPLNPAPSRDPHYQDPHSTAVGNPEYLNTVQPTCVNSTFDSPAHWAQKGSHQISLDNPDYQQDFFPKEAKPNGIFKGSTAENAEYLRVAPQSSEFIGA

For `CNC(=O)Nc1ccc(-c2nc(N3CC4CCC(C3)O4)c3cnn(C4CCC5(CC4)OCCO5)c3n2)cc1`, the % of control in test [1] amounted to 100%.
`Cc1cc([C@@H](C)Nc2ccccc2C(=O)O)c2nc(N3CCOCC3)cc(=O)n2c1` [AZD-6482] registered a % of control in [2] of 11%.
For the compound `CN(C)CCOc1ccc(-c2nc(-c3ccncc3)c(-c3ccc4c(c3)CC/C4=N\O)[nH]2)cc1`, the values for the % of control in [3] and in test [4] were 97% and 100%, respectively.
With `Nc1cnc(N2CCc3cc(S(=O)(=O)Nc4c(F)cc(Cl)cc4F)cc(N4CCCC4=O)c32)nc1` [TP-020n], the % of control in test [5] amounted to 100%; in test [6], 100%; in [7], 75%; in [8], 77%; in test [9], 85%; in test [10], 100%. Besides, the figures for the % of control in test [11], in test [12] and in test [13] were 88%, 74% and 82%, respectively.
`CCc1cccc(CC)c1NC(=O)c1nn(C)c2c1CCc1cnc(Nc3ccc(C(=O)NC4CCN(C)CC4)cc3OC(F)(F)F)nc1-2`: the IC50 – broadly, the concentration that inhibits the measured activity by half – in test [14] was above 10 µM.
On to `C=CC(=O)Nc1cc(-n2c(=O)ccc3cnc4ccc(-c5ccc(NS(C)(=O)=O)cc5)cc4c32)ccc1C`, for which the % of control in [15] (at 1 µM) and in test [15] (at 10 µM) was 100% in each case.

The values are drawn from ChEMBL document CHEMBL5465560, “Selectivity Literature for EUbOPEN Chemogenomic Library” (2024).
